Laboratory results published in patent US11629135B2 (JUBILANT PRODEL LLC, priority 2017, dated 2023).

Tested on: RENCA renal cancer cell line
Experiment: In vivo efficacy in RENCA renal model
Parameters: species or system Balb/c mice
Conditions: oral dosing
Method: In Vivo Efficacy of Compound-45 in RENCA Renal Model (FIG. 1):
RENCA renal cancer cell line was procured from ATCC, USA and grown in the recommended media and culture conditions. Cells in the exponential phase were mixed with equal volume of matrigel in a 1:1 ratio, followed by implantation of 1×10^6 cells/100 μl subcutaneously on the right flank of immunocompetant Balb/c mice (1 site/mouse). Tumor cells were engrafted at the site of injection within 1-2 weeks of implantation and treatment was initiated by randomizing mice into study groups of N=10, when the average tumor volume reached 100 mm^3. Tumor bearing mice were treated with Vehicle (oral), Vehicle (IP), Compound B (orally at 30 mg/kg dose, twice daily) or Anti-PD-L1 mAb (Clone 10F.9G2, BioXcell) intraperitoneally at 0.1 mg/mouse, Q4D. Tumor volume and mouse body weight was measured three times per week during treatment, until the tumor volume reached a maximum of 2000 mm^3. Tumor volume (mm^3) was calculated using the formula—(tumor length)×(tumor width)^2/2. For pharmacokinetic parameters of Compound B, plasma and tumors were isolated at the end of the study and analyzed. Tumor growth inhibition was calculated after normalizing the tumor volume on a given day to that on day 1 based on the formula below: % TGI=[1−(Treatment TVFinal−Treatment TVinitial)/(Vehicle TVFinal−Vehicle TVinitial)]*100

With `COc1nc(OCc2cccc(-c3ccccc3)c2C)nc(OC)c1CN1CCCC[C@H]1C(=O)O` [Compound 45, (S)-1-((4,6-dimethoxy-2-((2-methyl-[1,1′-biphenyl]-3-yl)methoxy)pyrimidin-5-yl)methyl)piperidine-2-carboxylic acid] the “body weight during the dosing regimen” value (RENCA tumor bearing Balb/c mice) was “no significant body weight reduction” and the “efficacy in RENCA renal model (tumor growth)” value (syngeneic Balb/c mice, 30 mg/kg twice daily, comparator Anti-PD-L1 mAb 0.1 mg/mouse IP Q4D) was “better or similar efficacy compared to PD-L1 monoclonal antibody”.
